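Protocol summary: plate cells (96-well), add compound at 5 concentrations, incubate 48 h, interpolate endpoints linearly. TGI marks complete inhibition of growth.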
Assays:
Assay in all cases: NCI anticancer screen, dose series, 48 h
TK-10 renal = system: TK-10 renal
COLO 205 colon = system: COLO 205 colon
SF-268 CNS = system: SF-268 CNS
MALME-3M melanoma = system: MALME-3M melanoma
DU-145 prostate = system: DU-145 prostate
NCI-H522 lung = system: NCI-H522 lung
NCI-H226 lung = system: NCI-H226 lung
SNB-19 CNS = system: SNB-19 CNS
MDA-N = system: MDA-N
OVCAR-4 ovarian = system: OVCAR-4 ovarian
OVCAR-5 ovarian = system: OVCAR-5 ovarian
SF-539 CNS = system: SF-539 CNS
UO-31 renal = system: UO-31 renal
OVCAR-3 ovarian = system: OVCAR-3 ovarian
A549 NSCLC = system: A549 NSCLC
HCT-15 colon = system: HCT-15 colon
RXF 393 renal = system: RXF 393 renal
786-0 renal = system: 786-0 renal
SR leukemia = system: SR leukemia
LOX IMVI melanoma = system: LOX IMVI melanoma
HOP-92 NSCLC = system: HOP-92 NSCLC
HCT-116 colon = system: HCT-116 colon
KM12 colon = system: KM12 colon
NCI/ADR-RES ovarian = system: NCI/ADR-RES ovarian
RPMI-8226 leukemia = system: RPMI-8226 leukemia
OVCAR-8 ovarian = system: OVCAR-8 ovarian
K-562 leukemia = system: K-562 leukemia
SW-620 colon = system: SW-620 colon
ACHN renal = system: ACHN renal
U251 CNS = system: U251 CNS
MCF7 breast = system: MCF7 breast
A498 renal = system: A498 renal
SN12C renal = system: SN12C renal
UACC-62 melanoma = system: UACC-62 melanoma
SK-MEL-5 melanoma = system: SK-MEL-5 melanoma
MDA-MB-435 = system: MDA-MB-435
NCI-H23 lung = system: NCI-H23 lung
MDA-MB-231 breast = system: MDA-MB-231 breast
EKVX NSCLC = system: EKVX NSCLC
IGROV1 ovarian = system: IGROV1 ovarian
M14 melanoma = system: M14 melanoma
NCI-H460 lung = system: NCI-H460 lung
HT29 colon = system: HT29 colon
CCRF-CEM leukemia = system: CCRF-CEM leukemia
SK-MEL-28 melanoma = system: SK-MEL-28 melanoma
PC-3 prostate = system: PC-3 prostate
SF-295 CNS = system: SF-295 CNS
HL-60(TB) leukemia = system: HL-60(TB) leukemia
CAKI-1 renal = system: CAKI-1 renal
HS 578T breast = system: HS 578T breast
UACC-257 melanoma = system: UACC-257 melanoma
SK-MEL-2 melanoma = system: SK-MEL-2 melanoma
MOLT-4 leukemia = system: MOLT-4 leukemia
SNB-75 CNS = system: SNB-75 CNS

C[C@]12CCC(O)CC1=CC[C@@H]1[C@@H]2CC[C@]2(C)C(O)[C@H](n3ccnc3)C[C@@H]12 (some centres undefined)
TGI (TK-10 renal): > 100 µM | TGI (COLO 205 colon): > 100 µM | TGI (SF-268 CNS): > 100 µM | TGI (MALME-3M melanoma): > 100 µM | TGI (DU-145 prostate): > 100 µM | TGI (NCI-H522 lung): > 100 µM | TGI (NCI-H226 lung): > 100 µM | TGI (SNB-19 CNS): > 100 µM | TGI (MDA-N): > 100 µM | TGI (OVCAR-4 ovarian): > 100 µM | TGI (OVCAR-5 ovarian): > 100 µM | TGI (SF-539 CNS): > 100 µM | TGI (UO-31 renal): > 100 µM | TGI (OVCAR-3 ovarian): > 100 µM | TGI (A549 NSCLC): > 100 µM | TGI (HCT-15 colon): > 100 µM | TGI (RXF 393 renal): > 100 µM | TGI (786-0 renal): > 100 µM | TGI (SR leukemia): > 100 µM | TGI (LOX IMVI melanoma): > 100 µM | TGI (HOP-92 NSCLC): > 100 µM | TGI (HCT-116 colon): > 100 µM | TGI (KM12 colon): > 100 µM | TGI (NCI/ADR-RES ovarian): > 100 µM | TGI (RPMI-8226 leukemia): > 100 µM | TGI (OVCAR-8 ovarian): > 100 µM | TGI (K-562 leukemia): > 100 µM | TGI (SW-620 colon): > 100 µM | TGI (ACHN renal): > 100 µM | TGI (U251 CNS): > 100 µM | TGI (MCF7 breast): > 100 µM | TGI (A498 renal): > 100 µM | TGI (SN12C renal): > 100 µM | TGI (UACC-62 melanoma): > 100 µM | TGI (SK-MEL-5 melanoma): > 100 µM | TGI (MDA-MB-435): > 100 µM | TGI (NCI-H23 lung): > 100 µM | TGI (MDA-MB-231 breast): > 100 µM | TGI (EKVX NSCLC): > 100 µM | TGI (IGROV1 ovarian): > 100 µM | TGI (M14 melanoma): > 100 µM | TGI (NCI-H460 lung): > 100 µM | TGI (HT29 colon): > 100 µM | TGI (CCRF-CEM leukemia): > 100 µM | TGI (SK-MEL-28 melanoma): > 100 µM | TGI (PC-3 prostate): > 100 µM | TGI (SF-295 CNS): > 100 µM | TGI (HL-60(TB) leukemia): 38.3 µM | TGI (CAKI-1 renal): > 100 µM | TGI (HS 578T breast): > 100 µM | TGI (UACC-257 melanoma): > 100 µM | TGI (SK-MEL-2 melanoma): > 100 µM | TGI (MOLT-4 leukemia): 80.1 µM | TGI (SNB-75 CNS): > 100 µM
